Test results taken from patent US20250213701A1, “MEDICAMENT FOR TREATING HUMAN TUMOR BASED ON ERF3A-TARGETING PROTEOLYSIS MECHANISM” (SUZHOU DEGEN BIO-MEDICAL CO., LTD., priority 2022, published 2025).

Experiments:
Format in all cases: cell-based
Settings in all cases: Homo sapiens, 72 h, 3 days, read-out: Inhibition rate
[1] = system: OVCAR-3 cells; assay: Anti-proliferative toxicity of C63 in tumor cell lines (CCK8): OVCAR-3
Protocol: (§1) Example 83: Detection of Anti-Proliferative Toxicity of C63 in Some Tumor Cell Lines
OVCAR-3 cells (purchased from the Cell Bank of the Chinese Academy of Sciences, Cat. No. TCHu228) were subcultured in a culture medium (RPMI-1640 medium+1% penicillin-streptomycin dual-antibiotic solution++20% fetal bovine serum+0.01 mg/mL recombinant human insulin) in an incubator at 5% carbon dioxide and 37° C.
OVCAR-3 cells were seeded at 2000 cells/well (90 μL) on a 96-well plate and cultured for 24 h.
(§2) 10 mM compound stock solutions were prepared in DMSO.
(§3) The compound stock solution was diluted with DMSO to give DMSO solutions 1-9 at concentrations of 0 μM, 2500 μM, 500 μM, 100 μM, 20 μM, 4 μM, 0.8 μM, 0.16 μM, and 0.032 μM.
(§4) 2 μL of each of solutions 1-9 was added to 98 μL of the medium to give mixed solutions 11-19 of the compound and the medium.
(§5) 10 μL of each of solutions 11-19 was added to the above cell seed solution to give a total volume of 100 μL (90 μL+10 μL).
(§6) The concentrations of the compound in the wells were 0 μM, 5.0 μM, 1.0 μM, 0.2 μM, 0.04 μM, 0.008 μM, 0.0016 μM, 0.00032 μM, and 0.000064 μM. All concentrations were in triplicate.
(§7) After the above-treated cells were cultured for 3 days, 10 μL of the CCK8 solution (DOJINDO, Cat. No. PF725) was added to each well. The plate was incubated in an incubator at 37° C. for 1-4 h and then detected on a microplate reader for the reading at 450 nm.

[2] = system: PANC-1 cells; assay: Anti-proliferative toxicity of C63 in tumor cell lines (CCK8): PANC-1
Protocol: as §1
PANC-1 cells (purchased from the Cell Bank of the Chinese Academy of Sciences, Cat. No. SCSP-535) were subcultured in a culture medium (DMEM medium+1% penicillin-streptomycin dual-antibiotic solution+10% fetal bovine serum) in an incubator at 5% carbon dioxide and 37° C.
PANC-1 cells were seeded at 5000 cells/well (90 μL) on a 96-well plate and cultured for 24 h.
as §2, §3, §4, §5, §6, §7

[3] = system: MDA-MB-468 cells; assay: Anti-proliferative toxicity of C63 in tumor cell lines (CCK8): MDA-MB-468
Protocol: as §1
MDA-MB-468 cells (purchased from the Cell Bank of the Chinese Academy of Sciences, Cat. No. TCHu136) were subcultured in a culture medium (L15 medium+1% penicillin-streptomycin dual-antibiotic solution+10% fetal bovine serum) in an incubator at 37° C.
MDA-MB-468 cells were seeded at 5000 cells/well (90 μL) on a 96-well plate and cultured for 24 h.
as §2, §3, §4, §5, §6, §7

[4] = system: NCI-N87 cells; assay: Anti-proliferative toxicity of C63 in tumor cell lines (CCK8): NCI-N87
Protocol: as §1
NCI-N87 cells (purchased from the Cell Bank of the Chinese Academy of Sciences, Cat. No. TCHu130) were subcultured in a culture medium (RPMI-1640 medium+1% penicillin-streptomycin dual-antibiotic solution+10% fetal bovine serum) in an incubator at 5% carbon dioxide and 37° C.
NCI-N87 cells were seeded at 8000 cells/well (90 μL) on a 96-well plate and cultured for 24 h.
as §2, §3, §4, §5, §6, §7

[5] = system: HL-60 cells; assay: Anti-proliferative toxicity of C63 in tumor cell lines (CCK8): HL-60
Protocol: as §1
HL-60 cells (purchased from the Cell Bank of the Chinese Academy of Sciences, Cat. No. TCHu23) were subcultured in a culture medium (IMDM medium+1% penicillin-streptomycin dual-antibiotic solution+20% fetal bovine serum) in an incubator at 5% carbon dioxide and 37° C.
HL-60 cells were seeded at 20000 cells/well (90 μL) on a 96-well plate and cultured for 24 h.
as §2, §3, §4, §5, §6, §7

C[C@]12C=CC(=O)N[C@@H]1CC[C@@H]1[C@@H]2CC[C@]2(C)[C@@H](C(=O)Nc3cccc(N[C@@H]4CCC[C@@H](Nc5cccc6c5C(=O)N([C@H]5CCC(=O)NC5=O)C6=O)C4)c3)CC[C@@H]12 [C63, N-(3-(N—(N-(4-(2-(3S-(2,6-dioxopiperidine))-isoindole-1,3-dione))-1R,3R-cyclohexanediamine))phenyl)-3-oxo-4-aza-5α-androst-1-ene-17β-carboxamide]
inhibition at 64 pM ([1]; 0.000064 μM): 17.9% | inhibition at 0.00032 µM ([1]; 0.000320 μM): 16.4% | inhibition at 0.0016 µM ([1]; 0.001600 μM): 42.6% | inhibition at 0.008 µM ([1]; 0.008000 μM): 61.4% | inhibition at 0.04 µM ([1]; 0.040000 μM): 74.4% | inhibition at 0.2 µM ([1]; 0.200000 μM): 80% | inhibition at 1 µM ([1]; 1.000000 μM): 83.7% | inhibition at 5 µM ([1]; 5.000000 μM): 85% | inhibition at 64 pM ([2]; 0.000064 μM): 21.2% | inhibition at 0.00032 µM ([2]; 0.000320 μM): 12.8% | inhibition at 0.0016 µM ([2]; 0.001600 μM): 25.3% | inhibition at 0.008 µM ([2]; 0.008000 μM): 31.6% | inhibition at 0.04 µM ([2]; 0.040000 μM): 36.3% | inhibition at 0.2 µM ([2]; 0.200000 μM): 42.1% | inhibition at 1 µM ([2]; 1.000000 μM): 48.7% | inhibition at 5 µM ([2]; 5.000000 μM): 52.8% | inhibition at 64 pM ([3]; 0.000064 μM): 4.42% | inhibition at 0.00032 µM ([3]; 0.000320 μM): 30.5% | inhibition at 0.0016 µM ([3]; 0.001600 μM): 55.1% | inhibition at 0.008 µM ([3]; 0.008000 μM): 64.6% | inhibition at 0.04 µM ([3]; 0.040000 μM): 65% | inhibition at 0.2 µM ([3]; 0.200000 μM): 65.5% | inhibition at 1 µM ([3]; 1.000000 μM): 70.2% | inhibition at 5 µM ([3]; 5.000000 μM): 74% | inhibition at 64 pM ([4]; 0.000064 μM): 7.79% | inhibition at 0.00032 µM ([4]; 0.000320 μM): 32.7% | inhibition at 0.0016 µM ([4]; 0.001600 μM): 61% | inhibition at 0.008 µM ([4]; 0.008000 μM): 66.7% | inhibition at 0.04 µM ([4]; 0.040000 μM): 64.1% | inhibition at 0.2 µM ([4]; 0.200000 μM): 62.5% | inhibition at 1 µM ([4]; 1.000000 μM): 64% | inhibition at 5 µM ([4]; 5.000000 μM): 65.2% | inhibition at 64 pM ([5]; 0.000064 μM): 73.5% | inhibition at 0.00032 µM ([5]; 0.000320 μM): 80.2% | inhibition at 0.0016 µM ([5]; 0.001600 μM): 89.5% | inhibition at 0.008 µM ([5]; 0.008000 μM): 90.7% | inhibition at 0.04 µM ([5]; 0.040000 μM): 92.4% | inhibition at 0.2 µM ([5]; 0.200000 μM): 94.3% | inhibition at 1 µM ([5]; 1.000000 μM): 91.6% | inhibition at 5 µM ([5]; 5.000000 μM): 87.5%
